This is an account of results in article PMC5063058, “Cephalosporins inhibit human metallo β-lactamase fold DNA repair nucleases SNM1A and SNM1B/apollo” (Chemical Communications (Cambridge, England), 2016).

The target in assay [1] is T1, SNM1B (Homo sapiens, UniProt Q9H816).
T1 construct: gene DCLRE1B; 5'-3' exonuclease with MBL and beta-CASP domains
T1 sequence (Q9H816 1-335): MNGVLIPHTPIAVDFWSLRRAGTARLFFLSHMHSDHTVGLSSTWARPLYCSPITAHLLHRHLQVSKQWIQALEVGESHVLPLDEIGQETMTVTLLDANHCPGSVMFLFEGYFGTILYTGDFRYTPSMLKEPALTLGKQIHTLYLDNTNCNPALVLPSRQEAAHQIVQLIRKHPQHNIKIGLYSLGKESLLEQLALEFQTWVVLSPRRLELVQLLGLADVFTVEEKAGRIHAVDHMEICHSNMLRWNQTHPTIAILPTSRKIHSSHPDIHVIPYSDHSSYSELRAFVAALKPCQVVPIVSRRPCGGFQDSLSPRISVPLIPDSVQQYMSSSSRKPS
Nature of the assay: real-time fluorescence nuclease assay (fluorescein/BHQ1 20-nt ssDNA). The class given is biochemical. An excerpt:
(§1) real-time fluorescence nuclease assay (fluorescein/BHQ1 20-nt ssDNA) on SNM1B

The target in assay [2] is T2, SNM1A (Homo sapiens, UniProt Q6PJP8).
T2 construct: gene DCLRE1A; 5'-3' exonuclease with MBL and beta-CASP domains
T2 sequence (Q6PJP8 700-1040): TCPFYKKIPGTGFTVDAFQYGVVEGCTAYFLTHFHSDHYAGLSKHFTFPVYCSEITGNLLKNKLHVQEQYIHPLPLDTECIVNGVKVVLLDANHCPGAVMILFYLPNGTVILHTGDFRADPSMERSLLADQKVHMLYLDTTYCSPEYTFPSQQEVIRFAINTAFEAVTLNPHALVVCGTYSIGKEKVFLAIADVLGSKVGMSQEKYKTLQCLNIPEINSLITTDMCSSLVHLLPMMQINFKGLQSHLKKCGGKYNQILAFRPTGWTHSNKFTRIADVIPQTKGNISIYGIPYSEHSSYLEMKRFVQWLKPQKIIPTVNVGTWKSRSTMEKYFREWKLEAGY
Described as above. The class given is biochemical. An excerpt:
real-time fluorescence nuclease assay (fluorescein/BHQ1 20-nt ssDNA) on SNM1A

Experiment in assay [3]: as above
It counts as biochemical, Homo sapiens. The conditions noted are these: read-out: IC50 SNM1A ^a /μM.
Source text: as §1

Assay [4] deals with T2, SNM1A. In words: quantitative 1H NMR binding assay.

Turning to `CO/N=C(\C(=O)N[C@@H]1C(=O)N2C(C(=O)O)=C(COC(C)=O)CS[C@H]12)c1csc(N)n1` [compound 3, Cefotaxime], the IC50 in assay [1] worked out at 129 ± 20 µM; in assay [2] it was 5 ± 2 µM.
Taken in the same sequence, the figures for `CC(=O)OCC1=C(C(=O)O)N2C(=O)[C@@H](N)[C@H]2SC1` [compound 1, 7-ACA] were 32 ± 10 µM and 7 ± 1 µM.
`CC(C)(O/N=C(\C(=O)N[C@@H]1C(=O)N2C(C(=O)[O-])=C(C[n+]3ccccc3)CS[C@H]12)c1csc(N)n1)C(=O)O` [Ceftazidime]: the IC50 in assay [3] and in assay [2] was > 500 µM in each case.
On to `CC(=O)OCC1=C(C(=O)O)N2C(=O)[C@@H](NC(=O)CCC[C@@H](N)C(=O)O)[C@H]2SC1` [compound 2, Cephalosporin C], for which the IC50 is > 500 µM in assay [1] and 61 ± 27 µM in assay [2].
In the case of `CO/N=C(\C(=O)N[C@@H]1C(=O)N2C(C(=O)O)=C(CSc3nc(=O)c(=O)[nH]n3C)CS[C@H]12)c1csc(N)n1` [compound 4, Ceftriaxone], the IC50 in assay [1] was found to be 40 ± 14 µM; in assay [2], 4 ± 2 µM. For the same compound, in assay [4], the affinity, expressed as Kd, was 19 ± 4 µM.
